Read-outs that look alike come from different tables or passages of the source.
How the values were obtained:
[1] = molecular target: T1, human progesterone receptor-A [PRA] isoform (Homo sapiens, UniProt P06401); experiment: Radioligand binding with human progesterone receptor cytosol ([3H]-progesterone competition); conditions: read-out: Ki (nM) PR
T1 construct: host or cells: insect SF21 cells (baculovirus)
T1 sequence (P06401 1-769 isoform P06401-2): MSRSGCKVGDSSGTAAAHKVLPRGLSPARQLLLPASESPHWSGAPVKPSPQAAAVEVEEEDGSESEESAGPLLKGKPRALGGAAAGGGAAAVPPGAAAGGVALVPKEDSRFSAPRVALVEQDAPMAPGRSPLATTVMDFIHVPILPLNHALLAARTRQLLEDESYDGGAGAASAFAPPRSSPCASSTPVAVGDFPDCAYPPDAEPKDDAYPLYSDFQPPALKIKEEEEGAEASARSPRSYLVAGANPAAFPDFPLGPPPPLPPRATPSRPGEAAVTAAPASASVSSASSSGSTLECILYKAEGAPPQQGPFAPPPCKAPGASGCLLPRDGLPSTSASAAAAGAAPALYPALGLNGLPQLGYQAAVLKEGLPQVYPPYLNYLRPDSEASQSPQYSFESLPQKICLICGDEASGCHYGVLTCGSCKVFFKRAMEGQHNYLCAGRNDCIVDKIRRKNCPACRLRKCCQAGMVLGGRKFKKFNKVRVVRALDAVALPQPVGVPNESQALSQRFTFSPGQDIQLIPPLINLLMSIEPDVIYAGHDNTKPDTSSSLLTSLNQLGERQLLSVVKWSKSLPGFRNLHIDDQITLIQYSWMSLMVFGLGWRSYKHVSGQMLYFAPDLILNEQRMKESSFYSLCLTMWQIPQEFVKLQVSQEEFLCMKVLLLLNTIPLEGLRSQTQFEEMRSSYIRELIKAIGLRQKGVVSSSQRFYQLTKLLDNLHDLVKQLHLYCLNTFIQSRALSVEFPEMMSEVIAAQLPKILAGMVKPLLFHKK

[2] = molecular target: T2, human glucocorticoid receptor-α [GRX] isoform (Homo sapiens, UniProt P04150); experiment: Radioligand binding with human glucocorticoid receptor cytosol ([3H]-dexamethasone competition); conditions: read-out: Ki (nM) GR
T2 construct: host or cells: insect SF21 cells (baculovirus)
T2 sequence (P04150 1-777): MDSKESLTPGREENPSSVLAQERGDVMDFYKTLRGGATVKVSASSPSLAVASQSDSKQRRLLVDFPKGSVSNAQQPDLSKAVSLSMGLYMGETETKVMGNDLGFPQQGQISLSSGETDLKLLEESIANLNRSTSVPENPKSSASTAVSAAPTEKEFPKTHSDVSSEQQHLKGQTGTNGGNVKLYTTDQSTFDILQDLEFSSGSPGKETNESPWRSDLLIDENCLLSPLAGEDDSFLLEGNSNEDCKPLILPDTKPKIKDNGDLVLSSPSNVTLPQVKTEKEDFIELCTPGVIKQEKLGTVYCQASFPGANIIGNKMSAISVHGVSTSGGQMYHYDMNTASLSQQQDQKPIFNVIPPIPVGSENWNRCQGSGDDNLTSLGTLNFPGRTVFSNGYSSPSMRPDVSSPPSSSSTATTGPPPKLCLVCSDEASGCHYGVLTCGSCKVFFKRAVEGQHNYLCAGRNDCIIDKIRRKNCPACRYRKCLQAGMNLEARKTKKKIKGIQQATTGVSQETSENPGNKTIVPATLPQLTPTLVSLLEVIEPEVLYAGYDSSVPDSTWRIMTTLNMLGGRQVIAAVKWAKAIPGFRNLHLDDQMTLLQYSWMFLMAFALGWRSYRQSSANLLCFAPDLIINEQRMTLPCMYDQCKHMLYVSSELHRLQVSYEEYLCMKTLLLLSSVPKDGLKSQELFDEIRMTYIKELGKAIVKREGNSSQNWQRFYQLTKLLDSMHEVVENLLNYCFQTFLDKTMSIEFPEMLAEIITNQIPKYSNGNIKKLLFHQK

[3] = PRA cytosol expressed in insect SF21 cells, [3H]Prog ~0.8 nM, 4° C. overnight, Ki by Cheng-Prusoff, KL ~4.5 nM
[4] = GRX cytosol expressed in insect SF21 cells, [3H]-Dex ~0.9 nM, 4° C. overnight, Ki by Cheng-Prusoff, KL ~[…]

Row | Ki [1, 3] | Ki [2, 4] | Compound | Ki [1] | Ki [2]
1 | ≥ 10000 nM | 13 nM | C=C(COC(C)=O)CC1Oc2cccc(OC)c2-c2ccc3c(c21)C(C)=CC(C)(C)N3 (centres unmarked) [Example 49] | – | –
2 | 9450 nM | 4.9 nM | COc1cccc2c1-c1ccc3c(c1C(c1ccc(C)cc1)O2)C(C)=CC(C)(C)N3 (centres unmarked) [Example 50, 2,5-Dihydro-10-methoxy-2,2,4-tnimethyl-5-(4-methylphenyl)-1H-[1]benzopyrano[3,4-f]quinoline] | – | –
3 | 7330 nM | 18 nM | COc1cccc2c1-c1ccc3c(c1C(c1ccc(C)c(F)c1)O2)C(C)=CC(C)(C)N3 (centres unmarked) [Example 51] | – | –
4 | 2270 nM | 3 nM | COc1cccc2c1-c1ccc3c(c1C(c1cccc(Br)c1)O2)C(C)=CC(C)(C)N3 (centres unmarked) [Example 52, 5-(3-Bromophenyl)-2,5-dihydro-10-methoxy-2,2,4-trimethyl-1H-[1]benzopyrano[3,4-f]quinoline] | – | –
5 | ≥ 10000 nM | 8.2 nM | COc1cccc2c1-c1ccc3c(c1C(c1ccc(F)c(C)c1)O2)C(C)=CC(C)(C)N3 (centres unmarked) [Example 55] | – | –
6 | ≥ 10000 nM | 6.2 nM | COc1cccc2c1-c1ccc3c(c1C(c1cccc(F)c1)O2)C(C)=CC(C)(C)N3 (centres unmarked) [Example 56, 5-(3-Fluorophenyl)-2,5-Dihydro-10-methoxy-2,2,4-trimethyl-1H-[1]benzopyrano[3,4-f]quinoline] | – | –
7 | 8570 nM | 9 nM | COc1cccc2c1-c1ccc3c(c1C(C(C)C)O2)C(C)=CC(C)(C)N3 (centres unmarked) [Example 58, 2,5-Dihydro-10-methoxy-2,2,4-trimethyl-5-(1-methylethyl)-1H-[1]benzopyrano[3,4-f]quinoline] | – | –
8 | 16600 nM | 9.5 nM | COc1cccc2c1-c1ccc3c(c1C(CC(C)C)O2)C(C)=CC(C)(C)N3 (centres unmarked) [Example 59, 2,5-Dihydro-10-methoxy-2,2,4-trimethyl-5-(2-methlpropyl)-1H-[1]benzopyrano[3,4-f]quinoline] | – | –
9 | 10500 nM | 14 nM | CCC1Oc2cccc(OC)c2-c2ccc3c(c21)C(C)=CC(C)(C)N3 (centres unmarked) [Example 60, 5-Ethyl-2,5-dihydro-10-methoxy-2,2,4-trimethyl-1H-[1]benzopyrano[3,4-f]quinoline] | – | –
10 | 14400 nM | 62 nM | CCOC(=N)C1Oc2cccc(OC)c2-c2ccc3c(c21)C(C)=CC(C)(C)N3 (centres unmarked) [Example 61, 2,5-Dihydro-10-methoxy-2,2,4-trimethyl-1H-[1]benzopyrano[3,4-f]quinoline-5-carboximidic Acid Ethyl Ester] | – | –
11 | ≥ 10000 nM | 511 nM | COc1cccc2c1-c1ccc3c(c1C(CC(=O)N(C)C)O2)C(C)=CC(C)(C)N3 (centres unmarked) [Example 63, 2,5-Dihydro-10-methoxy-2,2,4,N,N-pentamethyl-1H-[1]benzopyrano[3,4-f]quinoline-5-acetamide] | – | –
12 | ≥ 10000 nM | 591 nM | COc1cccc2c1-c1ccc3c(c1C(CC(=O)NC1CC1)O2)C(C)=CC(C)(C)N3 (centres unmarked) [Example 65, N-Cyclopropyl-2,5-Dihydro-10-methoxy-2,2,4-trimethyl-1H-[1]benzopyrano[3,4-f]quinoline-5-acetamide] | – | –
13 | ≥ 10000 nM | 21.7 nM | COc1cccc2c1-c1ccc3c(c1C(C1C=CC(=O)O1)O2)C(C)=CC(C)(C)N3 (centres unmarked) [Example 67, 5-(2,5-Dihydro-10-methoxy-2,2,4-trimethyl-1H-[1]benzopyrano[3,4-f]quinolin-5-yl)2(5H)-furanone] | – | –
14 | 9050 nM | 8 nM | C=CCCC1Oc2cccc(OC)c2-c2ccc3c(c21)C(C)=CC(C)(C)N3 (centres unmarked) [Example 68, 5-(32-Butenyl)-2,5-dihdro-10-methoxy-2,2,4-trimethyl-1H -1H-[1]benzopyrano[3,4-f]quinoline] | – | –
15 | 7300 nM | 25.5 nM | CCc1cccc2c1-c1ccc3c(c1C(c1ccccc1)O2)C(C)=CC(C)(C)N3 (centres unmarked) [Example 70, 10-Ethyl-2,5-dihydro-2,2,4-trimethyl-5-phenyl-1H-[1]benzopyrano[3,4-f]quinoline] | – | –
16 | 484 nM | 7.7 nM | CC1=CC(C)(C)Nc2ccc3c(c21)C(c1ccccc1)Oc1cccc(C)c1-3 (centres unmarked) [Example 71, 2,5-Dihydro-2,2,4,10-tetrametnyl-5-phenyl-1H-[1]benzopyrano[3,4-f]quinoline] | – | –
17 | 1450 nM | 17.8 nM | CCc1cccc2c1-c1ccc3c(c1C(c1cc(Cl)cc(Cl)c1)O2)C(C)=CC(C)(C)N3 (centres unmarked) [Example 72, 5-(3,5-Dichlorophenyl)-10-ethyl-2,5-dihydro-2,2,4-trimethyl-1H-[1]benzopyrano[3,4-f]quinoline] | – | –
18 | 4500 nM | 10.3 nM | CNc1cccc2c1-c1ccc3c(c1C(c1cc(Cl)cc(Cl)c1)O2)C(C)=CC(C)(C)N3 (centres unmarked) [Example 73, 5-(3,5-Dichlorophenyl)-2,5-dihydro-2,2,4,N-tetramethyl-1H[1]benzopyrano[3,4-f]quinolin-10-amine] | – | –
19 | 4880 nM | 11.9 nM | C=CCNc1cccc2c1-c1ccc3c(c1C(c1cc(Cl)cc(Cl)c1)O2)C(C)=CC(C)(C)N3 (centres unmarked) [Example 74, 5-(3,5-Dichlorophenyl)-2,5-dihydro-2,2,4-trimethyl-N-(2-propenyl)-1H-[1]benzopyrano[3,4-f]quinolin-10-amine] | – | –
20 | 13800 nM | 7.3 nM | C#CCOc1cccc2c1-c1ccc3c(c1C(c1ccccc1)O2)C(C)=CC(C)(C)N3 (centres unmarked) [Example 75, 2,5-Dihydro-2,2,4-trimethyl-5-phenyl-10-(2-propynyloxy)-1H-[1]benzopyrano[3,4-f]quinoline] | – | –
21 | ≥ 10000 nM | 152 nM | C=CCOc1cccc2c1-c1ccc3c(c1C(c1ccccc1)O2)C(C)=CC(C)(C)N3 (centres unmarked) [Example 76, 2,5-Dihydro-2,2,4-trimethyl-5-phenyl-10-(2-prenyloxy)-1H-[1]benzopyrano[3,4-f]quinoline] | – | –
22 | 173 nM | 1.6 nM | C=CCC1Oc2cccc(CO)c2-c2ccc3c(c21)C(C)=CC(C)(C)N3 (centres unmarked) [Example 77, 2,5-Dihydro-2,2,4-trimethyl-5-(2-propenyl)-1H-[1]benzopyrano[3,4-f]quinoline-10-methanol] | – | –
23 | ≥ 10000 nM | 19.2 nM | CCOc1cccc2c1-c1ccc3c(c1C(c1cc(Cl)cc(Cl)c1)O2)C(C)=CC(C)(C)N3 (centres unmarked) [Example 79, 5-(3,5-Dichlorophenyl)-10-ethoxy-2,5-dihydro-2,2,4-trimethyl-1H-[1]benzopyrano[3,4-f]quinoline] | – | –
24 | ≥ 10000 nM | 168 nM | CC1=CC(C)(C)Nc2ccc3c(c21)C(c1cc(Cl)cc(Cl)c1)Oc1cccc(O)c1-3 (centres unmarked) [Example 80, 5-(3,5-Dichlorophenyl)-2,5-dihydro-2,2,4-trimethyl-1H-[1]benzopyrano[3,4-f]quinolin-10-ol] | – | –
25 | ≥ 10000 nM | 155 nM | COC(=O)Oc1cccc2c1-c1ccc3c(c1C(c1cc(Cl)cc(Cl)c1)O2)C(C)=CC(C)(C)N3 (centres unmarked) [Example 81] | – | –
26 | 327 nM | 22.9 nM | C=CCC1Oc2cccc(O)c2-c2ccc3c(c21)C(C)=CC(C)(C)N3 (centres unmarked) [Example 82, 2,5-Dihydro-2,2,4-trimethyl-5-(2-propenyl)-1H-1benzopyrano[3,4-f]quinolin-10-ol] | – | –
27 | 2210 nM | 54.8 nM | C=CCC1Oc2cccc(OC(F)(F)Br)c2-c2ccc3c(c21)C(C)=CC(C)(C)N3 (centres unmarked) [Example 83, 10-(Bromodifluoromethoxy)-2,5-dihyro-2,2,4-trimethyl-5-(2-propenyl)-1H-[1]benzopyrano[3,4-f]quinoline] | – | –
28 | – | – | COC(=O)Oc1cccc(C2Oc3cccc(OC)c3-c3ccc4c(c32)C(C)=CC(C)(C)N4)c1 (centres unmarked) [Example 84, [3-(2,5-Dihydro-10-methoxy-2,2,4-trimethyl-1H-[1]benzopyrano[3,4-f]quinolin-5-yl)phenyl]methylcarbonate] | ≥ 10000 nM | 17.3 nM

Source: US6506766B1 (Abbott Laboratories, priority 1998, dated 2003)
